Structures are written as SMILES. ≈ marks a conversion by molar mass, not a printed value. Where “and” joins values, the source holds several entries; their conditions need not be identical. Equal entries are not always repeated.

What all share (experiment): ≥ marks a high value that may be exact or a test limit, other limits are often not marked, values filed in µg/mL are converted to µM
In assay [1] the test system is Aeromonas hydrophila.
Assay [2] deals with Bacillus subtilis.
The subject of assay [3] is Escherichia coli.
Assay [4] relates to Staphylococcus aureus.
Assay [5] relates to Vibrio harveyi.
For assay [6], the system named is Vibrio parahaemolyticus.
For assay [7], the system named is Escherichia coli HB101.
Assay [8] concerns Leishmania major MHOM/IL/67/JERICHO-II.
The subject of assay [9] is Staphylococcus aureus Cowan 1.
For assay [10], the system named is Aspergillus flavus KCTC 9471.
The subject of assay [11] is Aspergillus fumigatus KCTC 6145.
For assay [12], the system named is Bacillus subtilis KCTC 1998.
Assay [13] has as its system Botrytis cinerea.
Assay [14] relates to Candida albicans KCTC 7270.
Assay [15] concerns Escherichia coli ATCC 25922.
The subject of assay [16] is Escherichia coli O157:H7 ATCC 43895.
For assay [17], the system named is Fusarium verticillioides.
The test system of assay [18] is Listeria monocytogenes KCTC 3710.
Assay [19] relates to Proteus vulgaris.
Assay [20] deals with Pseudomonas aeruginosa ATCC 15692.
In assay [21] the test system is Pseudomonas aeruginosa.
For assay [22], the system named is Saccharomyces cerevisiae.
Assay [23] deals with Salmonella typhimurium.
For assay [24], the system named is Staphylococcus aureus ATCC 25923.
In assay [25] the test system is Staphylococcus epidermidis.
Assay [26] deals with Trichosporon beigelii.
Assay [27] has as its system Bacillus cereus C737.
Assay [28] has as its system Escherichia coli UB1005.
Assay [29] has as its system Pseudomonas aeruginosa PAO1.

The term MIC denotes the smallest concentration in the dilution series that meets the test's criterion for growth inhibition. Read a high MIC as a less susceptible organism. With `CC[C@H](C)[C@H](NC(=O)[C@H](CC(C)C)NC(=O)[C@H](CCC(=O)O)NC(=O)CNC(=O)[C@H](CC(C)C)NC(=O)[C@H](Cc1cnc[nH]1)NC(=O)CNC(=O)[C@H](CCCCN)NC(=O)[C@@H](NC(=O)[C@H](Cc1ccccc1)NC(=O)[C@H](CCCCN)NC(=O)[C@H](CCCCN)NC(=O)[C@H](CS)NC(=O)[C@H](CC(C)C)NC(=O)[C@H](CO)NC(=O)[C@H](CCCCN)NC(=O)[C@H](CC(C)C)NC(=O)[C@H](CC(C)C)NC(=O)CN)C(C)C)C(=O)N[C@@H](CCC(=O)O)C(=O)N[C@@H](CCC(=O)O)C(=O)N[C@@H](CC(C)C)C(=O)N[C@H](C(=O)N[C@H](C(=O)N[C@@H](CO)C(=O)N[C@@H](CC(=O)O)C(=O)N[C@@H](CC(=O)O)C(=O)O)[C@@H](C)O)[C@@H](C)O` [GLLKSLCKKFVKGHLGELIEELTTSDD], the MIC in [1] was ≥ 96 µM; in assay [2] it was ≥ 33.9 µM; in assay [3] it was 17 µM (≈ 50.5 µg/mL); in assay [4], 17 µM (≈ 50.5 µg/mL); in [5], 17 µM (≈ 50.5 µg/mL); in assay [6], ≥ 96 µM.
As for `CC[C@H](C)[C@H](NC(=O)[C@@H](NC(=O)[C@H](CC(=O)O)NC(=O)[C@H](C)NC(=O)[C@H](C)NC(=O)[C@H](C)NC(=O)CNC(=O)[C@H](CC(C)C)NC(=O)[C@H](C)NC(=O)[C@H](C)NC(=O)[C@H](CCCCN)NC(=O)CNC(=O)[C@H](C)NC(=O)[C@H](Cc1cnc[nH]1)NC(=O)[C@H](CC(C)C)NC(=O)[C@H](C)NC(=O)[C@H](CCSC)NC(=O)[C@@H](NC(=O)CNC(=O)[C@H](CC(C)C)NC(=O)[C@H](CCCCN)NC(=O)[C@H](CCCCN)NC(=O)[C@H](CC(C)C)NC(=O)[C@H](CCSC)NC(=O)[C@@H](NC(=O)[C@H](CCCCN)NC(=O)[C@H](Cc1c[nH]c2ccccc12)NC(=O)[C@H](CC(C)C)NC(=O)[C@H](C)N)[C@@H](C)O)[C@@H](C)O)[C@@H](C)O)C(N)=O` [ALWKTMLKKLGTMALHAGKAALGAAADTI], the MIC in assay [7] was found to be 2.7 µM (≈ 7.97 µg/mL); in [8], 6.1 µM (≈ 18 µg/mL); in assay [9] it was 2.7 µM (≈ 7.97 µg/mL).
With `CC[C@H](C)[C@H](NC(=O)[C@H](CCC(=O)O)NC(=O)[C@H](CC(N)=O)NC(=O)[C@H](CS)NC(=O)[C@@H](N)C(C)C)C(=O)NCC(=O)N[C@@H](CC(C)C)C(=O)N[C@@H](CC(C)C)C(=O)N[C@@H](CCCCN)C(=O)N[C@@H](CO)C(=O)N[C@@H](CC(C)C)C(=O)N[C@@H](CS)C(=O)N[C@@H](CCCCN)C(=O)N[C@@H](CCCCN)C(=O)N[C@@H](Cc1ccccc1)C(=O)N[C@H](C(=O)N[C@@H](CCCCN)C(=O)NCC(=O)N[C@@H](Cc1cnc[nH]1)C(=O)N[C@@H](CC(C)C)C(=O)NCC(=O)N[C@@H](CCC(=O)O)C(=O)O)C(C)C` [VCNEIGLLKSLCKKFVKGHLGE], the MIC is ≥ 96 µM in assay [1]; ≥ 96 µM in [2]; 33.9 µM (≈ 82 µg/mL) in assay [3]; 17 µM (≈ 41 µg/mL) in [4]; ≥ 96 µM in [5]; ≥ 96 µM in assay [6].
`CC[C@H](C)[C@H](NC(=O)[C@H](CCCCN)NC(=O)[C@H](CO)NC(=O)[C@H](Cc1ccccc1)NC(=O)[C@H](CC(C)C)NC(=O)[C@H](CCCCN)NC(=O)[C@H](CCC(=O)O)NC(=O)[C@H](CC(C)C)NC(=O)[C@H](CCCN=C(N)N)NC(=O)[C@H](CCCCN)NC(=O)[C@H](Cc1ccccc1)NC(=O)[C@@H](NC(=O)[C@H](CCCCN)NC(=O)[C@H](CCCCN)NC(=O)[C@H](C)N)C(C)C)C(=O)N[C@@H](Cc1c[nH]c2ccccc12)C(=O)N[C@@H](CC(N)=O)C(=O)N[C@@H](Cc1c[nH]c2ccccc12)C(=O)N[C@@H](CCCCN)C(N)=O` [AKKVFKRLEKLFSKIWNWK]: the MIC in [10] stood at 25 µM (≈ 61.2 µg/mL); in assay [11], 25 µM (≈ 61.2 µg/mL); in assay [12], 2 µM (≈ 4.9 µg/mL); in assay [2], 1.56 µM (≈ 3.82 µg/mL); in [13] it was 3.13 µM (≈ 7.67 µg/mL); in assay [14], 12.5 µM (≈ 30.6 µg/mL). Besides, the MIC in [15] was determined as 2 µM (≈ 4.9 µg/mL); in assay [16], 3.13 µM (≈ 7.67 µg/mL); in [3], 1.56 µM (≈ 3.82 µg/mL); in assay [17] it was 12.5 µM (≈ 30.6 µg/mL); in assay [18], 0.39 µM (≈ 0.955 µg/mL); in assay [19], 3.13 µM (≈ 7.67 µg/mL). The MIC in assay [20] was 2 µM (≈ 4.9 µg/mL); in assay [21] it was 3.13 µM (≈ 7.67 µg/mL); in assay [22] it was 25 µM (≈ 61.2 µg/mL); in [23], 0.39 µM (≈ 0.955 µg/mL); in [24], 2 µM (≈ 4.9 µg/mL); in assay [4], 1.56 µM and 3.13 µM. Further, the MIC in assay [25] was 3.13 µM (≈ 7.67 µg/mL); in assay [26], 1.56 µM (≈ 3.82 µg/mL).
As to `CC[C@H](C)[C@H](NC(=O)[C@H](CCCCN)NC(=O)[C@H](CO)NC(=O)[C@H](Cc1ccccc1)NC(=O)[C@H](CC(C)C)NC(=O)[C@H](CCCCN)NC(=O)[C@H](CCC(=O)O)NC(=O)[C@H](CC(C)C)NC(=O)[C@H](CCCN=C(N)N)NC(=O)[C@H](CCCCN)NC(=O)[C@H](Cc1ccccc1)NC(=O)[C@@H](NC(=O)[C@H](CCCCN)NC(=O)[C@H](CCCCN)NC(=O)[C@H](C)N)C(C)C)C(=O)N[C@@H](Cc1c[nH]c2ccccc12)C(=O)N[C@@H](CC(N)=O)C(=O)N[C@@H](CC(=O)O)C(=O)N[C@@H](CCCCN)C(N)=O` [AKKVFKRLEKLFSKIWNDK], the MIC in [10] is ≥ 50 µM; in assay [11], ≥ 50 µM; in assay [2], 1.56 µM (≈ 3.71 µg/mL); in [13], 6.25 µM (≈ 14.9 µg/mL); in assay [14] it was 25 µM (≈ 59.4 µg/mL); in [16] it was 6.25 µM (≈ 14.9 µg/mL). For the same molecule, the MIC in [3] amounted to 3.13 µM (≈ 7.44 µg/mL); in assay [17] it was 25 µM (≈ 59.4 µg/mL); in [18] it was 1.56 µM (≈ 3.71 µg/mL); in assay [19], 3.13 µM (≈ 7.44 µg/mL); in assay [21] it was 6.25 µM (≈ 14.9 µg/mL); in assay [22] it was 25 µM (≈ 59.4 µg/mL). Also, the MIC was 0.78 µM (≈ 1.85 µg/mL) in assay [23], 6.25 µM (≈ 14.9 µg/mL) in assay [4], 3.13 µM (≈ 7.44 µg/mL) in assay [25] and 1.56 µM (≈ 3.71 µg/mL) in [26].
For the molecule `CC[C@H](C)[C@H](NC(=O)[C@H](CC(=O)O)NC(=O)[C@H](Cc1ccccc1)NC(=O)[C@H](CC(C)C)NC(=O)CN)C(=O)N[C@H](C(=O)N[C@@H](CCCCN)C(=O)N[C@@H](CCCCN)C(=O)N[C@H](C(=O)N[C@H](C(=O)NCC(=O)N[C@@H](C)C(=O)N[C@@H](C)C(=O)NCC(=O)N[C@@H](CO)C(=O)N[C@@H](CC(C)C)C(N)=O)C(C)C)C(C)C)C(C)C` [GLFDIVKKVVGAAGSL], the results for the MIC in [27], in assay [28] and in assay [29] were ≥ 81.3 µM, ≥ 81.3 µM and > 81.3 µM, respectively.
As to `CSCC[C@H](NC(=O)[C@@H](NC(=O)CNC(=O)[C@H](CC(C)C)NC(=O)[C@H](CCCCN)NC(=O)[C@H](CCCCN)NC(=O)[C@H](CC(C)C)NC(=O)[C@H](CCSC)NC(=O)[C@@H](NC(=O)[C@H](CCCCN)NC(=O)[C@H](Cc1c[nH]c2ccccc12)NC(=O)[C@H](CC(C)C)NC(=O)[C@H](C)N)[C@@H](C)O)[C@@H](C)O)C(=O)N[C@@H](C)C(=O)N[C@@H](CC(C)C)C(=O)N[C@@H](Cc1cnc[nH]1)C(=O)N[C@@H](C)C(=O)NCC(=O)N[C@@H](CCCCN)C(N)=O` [ALWKTMLKKLGTMALHAGK], the values for the MIC in assay [7], in assay [8] and in [9] were 3.6 µM (≈ 7.55 µg/mL), 17.9 µM (≈ 37.5 µg/mL) and ≥ 35.9 µM, respectively.

The record behind these values is DBAASP.
